Paper PMC4279163, “Inhibitory Effect of b-AP15 on the 20S Proteasome” (Biomolecules, 2014)
“And” between values parts separate entries of the source, which are not always exact repeats. Identical values can stand only once. Like-named read-outs stand apart in the source and are kept apart here.

Key:
[1] = test system: proteasome of HeLa Ub^G76V-GFP cells; test: Cell-based proteasome inhibition assay (Ub-GFP accumulation); conditions: 24 h
Experimental: It was shown that b-AP15 at 50 μM inhibited the deubiquitination by the 19S regulatory particle, but not the 20S proteasome in in vitro enzymatic assays. […] HeLa Ub^G76V-GFP cells express ubiquitin-green fluorescent protein (Ub-GFP), which is efficiently degraded by the proteasome. HeLa Ub^G76V-GFP cells accumulate Ub-GFP in the presence of proteasome inhibitors. […] Some of the HeLa Ub^G76V-GFP cells turned green in the presence of b-AP15 at a concentration as low as 0.32 μM (Figure 1b). […] Ub-YFP was accumulated in the MelJuSo Ub-YFP cells at a b-AP15 concentration as low as 0.7 μM [12].
Figure 1 b-AP15 inhibited the proteasome of HeLa ubiquitin-green fluorescent protein (Ub^G76V-GFP) cells. HeLa Ub^G76V-GFP cells were treated with b-AP15 at 0.95 μM (a,d); 0.32 μM (b,e), or no b-AP15 (c,f) for 24 h, where (a), (b), and (c) are fluorescence microscopic images; (d), (e), and (f) are regular phase contrast images of the cells.
HeLa Ub^G76V-GFP cells (kindly provided by Nico P. Dantuma, Karolinska Institutet, Stockholm, Sweden) were cultured in DMEM medium supplemented with 10% fetal calf serum, 100 units/mL of penicillin, and 100 µg/mL of streptomycin. […] The green fluorescence emitted by the treated HeLa Ub^G76V-GFP cells was then observed and documented with a Nikon fluorescent microscopic system.

[2] = molecular target: T1, human 19S regulatory particles (Homo sapiens, UniProt P54578+Q9Y5K5); test: 19S regulatory particle de-ubiquitinase assay (ub-AMC); assay type: biochemical; conditions: 19S 2.9 nM; ub-AMC 1 μM; read-out: IC50, deubiquitinase activities of the 19S regulatory particles
T1 construct: purchased Boston Biochem
Experimental: Figure 2 (a) b-AP15 inhibited the 19S regulatory particles. The activity of human 19S regulatory particles (Boston Biochem) was determined in the presence of the fluorogenic substrate ub-AMC and various concentrations of b-AP15 as indicated using a reported assay condition. RFU denotes the relative fluorescence units of the reactions; (b) Inhibitory effect of b-AP15 on the chymotrypsin-like activity of the 20S proteasome. BG in the figure denotes background.
The de-ubiquitinase activities of the human 19S regulatory particles (proteasome) (Boston Biochem, Boston, MA, USA) were determined in the presence of the fluorogenic substrate ub-AMC (Boston Biochem) and various concentrations of b-AP15 using the reported assay condition. The reaction buffer used contained 25 mM HEPES, 50 mM NaCl, 10 mM MgCl2, 2 mM ATP, and 1 mM DDT. The human 19S regulatory particles and the substrate ub-AMC were used at a final concentration of 2.9 nM, and 1 μM, respectively. The proteolysis reaction rate was monitored using a BioTek fluorometer (Winooski, VT, USA).

19S regulatory particle = test system: 19S regulatory particle; design: method as in PMID 22057347; conditions: 50 μM; cited from earlier work
[3] = test system: MelJuSo Ub-YFP reporter cell line; design: method as in PMID 22057347; conditions: MelJuSo Ub-YFP cells; cited from earlier work
[4] = molecular target: T2, human 20S proteasome, trypsin-like activity (Homo sapiens, UniProt Q99436); test: 20S proteasome assay, trypsin-like activity (Bz-VGR-AMC); assay type: biochemical; conditions: activator PA28; Bz-VGR-AMC 20 μM; read-out: IC50, trypsin-like activity of PA28-activated 20S proteasome
T2 construct: purchased Calbiochem
Experimental: (§1) Proteasome assay kits were purchased from Calbiochem, San Diego, CA. The effect of the proteasome inhibitors on the 20S proteasome activities was assayed following the protocols provided by the manufacturer. The major components of the assay mixture are the human 20S proteasome, fluorogenic peptide substrates and a proteasome activator. […] The concentrations of the proteasome activators used, PA28, PALAME, and SDS were 2 μg/mL, 19 μM, and 0.03% (V/V), respectively.
(§2) The trypsin-like and caspase-like activities of the 20S proteasome were determined using the fluorogenic substrates Bz-VGR-AMC (20 μM) and (Z)-LLEbNA (20 μM), respectively. Fluorescence generated from the proteolytic reaction in the presence of various concentrations of the inhibitors was measured using a BioTek fluorometer. […] The value of IC50 is expressed as mean ± standard deviation from three independent assays using CalcuSyn (Biosoft, Cambridge, UK).

20S proteasome = test system: 20S proteasome; design: method as in PMID 22057347; conditions: 50 μM; SDS as activator; cited from earlier work
[5] = molecular target: T3, 20S proteasome, chymotrypsin-like activity (Homo sapiens, UniProt P28074); test: 20S proteasome assay, chymotrypsin-like activity (Suc-LLVY-AMC); assay type: biochemical; design: purchased Calbiochem; conditions: for IC50: Suc-LLVY-AMC 20 μM, mean ± SD, three assays
Experimental: as §1, §2

multiple myeloma = test system: multiple myeloma; design: method as in PMID 24319254; conditions: human xenograft mouse model; cited from earlier work
[6] = molecular target: T3, 20S proteasome, chymotrypsin-like activity; test: HPLC analysis of the substrates and products of the 20S proteasome; assay type: biochemical; conditions: 0, 2.4, 9.6, 38 μM; PA28 11 μg/mL; 6 h, room temperature
From the text: b-AP15 is highly chromogenic with a conjugated π-bonding system that could potentially be quenching the emitted fluorescence from proteasome cleavage of the substrate. To eliminate the possible effect of quenching by b-AP15, we used HPLC to analyze the substrate and cleaved products, AMC (P1) and Suc-LLVY (P2), after the enzyme reactions. The ratio of P/S was used to express the relative amount of reaction product formation under the assay conditions, where P represents the products and S represents the substrate Suc-LLVY-AMC (S). […]
Figure 3 Inhibition of the chymotrypsin-like activity of the 20S proteasome. The reaction products of the 20S proteasome, AMC (P1), Suc-LLVY (P2), and substrate Suc-LLVY-AMC (S) were analyzed by HPLC. P1/S and P2/S are the ratios of the reaction products and the substrate calculated from the area under the curve of the HPLC profiles.
b-AP15 at various concentrations (0, 2.4, 9.6, and 38 μM) was incubated with the 20S proteasome (4.3 nM), substrate (Suc-LLVY-AMC, 0.2 mM), and PA28 (11 μg/mL) at room temperature for 6 h. […] The reaction products, AMC (P1), Suc-LLVY (P2), and substrate Suc-LLVY-AMC (S) in the filtrate were analyzed using reverse phase HPLC with a gradient of increasing acetonitrile/water ratio. […]

[7] = molecular target: T4, human 20S proteasome, caspase-like activity (Homo sapiens, UniProt P28072); test: 20S proteasome assay, caspase-like activity ((Z)-LLEbNA); assay type: biochemical
T4 construct: purchased Calbiochem
Experimental: as §1, §2

Q: For C=CC(=O)N1C/C(=C\c2ccc([N+](=O)[O-])cc2)C(=O)/C(=C/c2ccc([N+](=O)[O-])cc2)C1 [b-AP15], which “Accumulation of Ub^G76V-GFP and/or GFP in cells” value ([1]; 0.95 μM) is on record?
A: accumulation of Ub^G76V-GFP and/or GFP in majority of the cells

Q: And the “Lowest concentration at which some cells turned green” value ([1]; fluorescence microscopy)?
A: 0.32 µM

Q: And the IC50 [2]?
A: 15.2 µM

Q: And the “Inhibition of deubiquitination by the 19S regulatory particle” value (19S regulatory particle)?
A: inhibited

Q: And the “Lowest concentration at which Ub-YFP was accumulated” value [3]?
A: 0.7 µM

Q: What about the IC50 [4] of the same compound?
A: 40.6 ± 5.23 µM

Q: What about the “Inhibition of the 20S proteasome” value (20S proteasome) of the same compound?
A: did not inhibit

Q: What about the inhibition at 48 µM ([5]; 48 μM, 0.03% SDS as activator, read-out: Inhibition of the chymotrypsin-like activity of the SDS-activated 20S proteasome) of the same compound?
A: < 50%

Q: And the IC50 ([5]; activator PA28 2 μg/mL, read-out: IC50, chymotrypsin-like activity of the 20S proteasome activated by PA28)?
A: 18.1 ± 3.22 µM

Q: And the IC50 ([5]; activator PALAME 19 μM, read-out: IC50, chymotrypsin-like activity of the 20S proteasome activated by PALAME)?
A: 26 µM and 26.3 µM

Q: And the IC50 ([5]; activator SDS 0.03%, read-out: IC50, chymotrypsin-like activity of the 20S proteasome activated by SDS)?
A: > 48 µM

Q: And the Anti-multiple myeloma activity (multiple myeloma)?
A: anti-multiple myeloma activity

Q: What about the “Formation of the two cleaved products AMC (P1) and Suc-LLVY (P2) by HPLC” value [6] of the same compound?
A: inhibited the formation of the two cleaved products in a dose dependent manner

Q: What about the IC50 ([7]; activator PA28, (Z)-LLEbNA 20 μM, read-out: IC50, caspase-like activity of PA28-activated 20S proteasome) of the same compound?
A: > 48 µM

Q: And the “Effect on the caspase-like activity” value ([7]; up to 48 μM, PA28-activated)?
A: did not significantly affect
